In data set [1] the test system is GPA33-expressing human colorectal cancer SW1222 subcutaneous xenograft. Description: PET/CT imaging of pretargeted [^18F]CyD. The data set is classed as in vivo, Athymic nude mice. Particulars: approximately 1 h after i.v. injection (1.295 MBq, 0.23 nmol), pretargeted tumor-bearing mice. On the procedure: (§1) In vivo pretargeting of [^18F]CyD for PET imaging of human colorectal cancer xenograft (SW1222 human carcinoma cell line). Athymic nude mice bearing the GPA33-expressing human colorectal cancer SW1222 subcutaneous xenograft were used as a model for anti-GPA33 DOTA-PRIT. The groups were intravenously (i.v.) injected with BsAb huA33-C825 (250 μg, 1.19 nmol), followed 24 h later with i.v. injection of dendron CA ([…], 2.76 nmol; (glycodendrimer-based CA α-thio-N-acetylgalactosamine-16-DOTA-Y^3; see WO2020014386)) and after an additional 4 h, i.v. injection of [^18F]CyD (1.295 MBq (35 μCi), 0.23 nmol). Non-invasive PET/CT imaging was performed using a preclinical Inveon PET/CT system at ˜1 h post-injection (p.i.) of [^18F]CyD (see FIG. 23), followed with ex vivo biodistribution assay of radioactivity.

The test system is the same in data set [2]. Description: Ex vivo biodistribution of anti-GPA33 pretargeted [^18F]CyD. Type of data set: in vivo, Athymic nude mice. Particulars: 2 h p.i. Here is the method: as §1
Data set [3] relates to subcutaneous GD2-expressing tumor (IMR32Luc). The experiment in a line: ^18F-PET imaging of GD2-positive subcutaneous tumor. The data set is classed as in vivo. Particulars: IMR32Luc tumor mouse, anti-GD2/anti-DOTA BsAb 24 h and clearing agent 4 h before PET; image after 2 hours. On the procedure:
A pilot PET study using ([^175Lu][^18F]-Compound 6) was carried out. For that purpose, a mouse bearing a subcutaneous GD2-expressing tumor (IMR32Luc) was pretreated (24 hours pre PET) with an anti-GD2/anti-DOTA BsAb and followed with DOTA-dendrimer clearing agent (glycodendrimer-based CA α-thio-N-acetylgalactosamine-16-DOTA-Y^3; see WO2020014386) (4 hours before PET) and [^175Lu][^18F]-Compound 6. After 2 hours the image was collected by a PET scan. […] Moreover, the small size of [^175Lu][^18F]-Compound 6 reduced background activity dramatically in a short amount of time.

`CC1(C)C(=C/C=C/C2=[N+](CCCCCC(=O)NCC[N+](C)(C)C[B-](F)(F)[18F])c3ccc(S(=O)(=O)[O-])cc3C2(C)C)N(CCCCCC(=O)Nc2ccc(CC3CN(CC(=O)[O-])CCN(CC(=O)[O-])CCN(CC(=O)[O-])CCN3CC(=O)[O-])cc2)c2ccc(S(=O)(=O)[O-])cc21.[175Lu+3]` (stereo not drawn) [[^18F]CyD]: in data set [1], the “Activity in the tumor by PET/CT” value is on record as “high activity is present in the tumor”. In data set [2] (SW1222-tumor bearing mice), this compound displayed a Bone uptake of 1.65±0.48 % ID/g and a Large intestine uptake of 8.41±2.62 % ID/g. In data set [2] (n=3, SW1222-tumor bearing mice), this compound showed a Blood uptake of 0.17±0.12 % ID/g, a Kidney uptake of 0.87±0.11 % ID/g and a Tumor Uptake of 5.14±1.24 % ID/g. Also, in data set [2] (tumor to blood), the “T:NT for blood” value worked out at 31±13. In addition, in data set [2] (tumor to kidney), the “T:NT for kidney” value is recorded as 6±1.

For `CC1(C)C(=CC=CC2=[N+](CCCCCC(=O)NCC[N+](C)(C)C[B-](F)(F)[18F])c3ccc(S(=O)(=O)[O-])cc3C2(C)C)N(CCCCCC(=O)Nc2ccc(CC3CN(CC(=O)[O-])CCN(CC(=O)[O-])CCN(CC(=O)[O-])CCN3CC(=O)[O-])cc2)c2ccc(S(=O)(=O)[O-])cc21.[175Lu+3]` (stereo not drawn) [[^175Lu][^18F]-Compound 6, [^18F]Cy3D[^175Lu]], in data set [3], the “Tumor targeting by PET scan” value is recorded as “specifically targeted to the BsAb-treated tumor”.
